The source of these data is patent US12103924B2, “Mitogen-activated protein kinase kinase (MEK) degradation compounds and methods of use” (Icahn School of Medicine at Mount Sinai, priority 2020, dated 2024).

SMILES strings stand for the structures.

Assay [1] has as its system pMEK and pERK. The assay is described as follows: Western blot of MEK and ERK phosphorylation in HT-29 cells. It counts as cell-based. The conditions noted are these: HT-29 cells; for phosphorylation of MEK and ERK / pERK signaling, time-dependent: 0.1 μM or 0.3 μM, harvested at indicated time points.
Assay [2] deals with pMEK and pERK. The assay is described as follows: Western blot of MEK and ERK phosphorylation in SK-MEL-28 cells. The conditions noted are these: SK-MEL-28 cells; for phosphorylation of MEK and ERK / pERK signaling, time-dependent: 0.1 μM or 0.3 μM, harvested at indicated time points.
The subject of assay [3] is MEK1/2. Kind of assay: Western blot of MEK1/2 protein levels in HT-29 cells. In kind it is cell-based. The conditions noted are these: for MEK1 and MEK2 protein levels, time-dependent: 0.1 μM or 0.3 μM, harvested at indicated time points.
Protocol: Compound concentrations are 0.3 μM, 1 μM and 3 μM.
(§3) The indicated protein levels were determined by Western blots.
(§4) The sample was centrifuged at 12,000 g for 10 min at 4° C. to get supernatant as cell lysate. Protein concentrations were quantified using Pierce rapid gold BCA protein assay kit.
The next assay concerns SK-MEL-28 cells. Kind of assay: WST-8 cell viability assay, SK-MEL-28. The conditions noted are these: WST-8 3 d serial dilutions. In kind it is cell-based. On the procedure:
(§1) Cells were fixed and stained by crystal violet.
(§2) Cells (2000 cells per well) were seeded into 96-well microplates. After 20 h, cells were treated with 0.1% DMSO or indicated serial dilutions of compounds in duplicate or triplicate for 3 days. Cell viability was tested using MTT (M6494, Thermo Fisher Scientific) or WST-8 reagent (CK04, Dojindo). Briefly, 12 mM MTT was prepared in PBS or WST-8 reagent was warmed up to room temperature. 20 μL MTT or CCK-8 was then added to each well and the plates were kept in incubator at 37° C. for 3 h in the dark. For the WST-8 assay, signal was obtained after the incubation. For the MTT assay, cell medium was replaced with 200 μL of DMSO after the incubation, and then cell plates were kept at 37° C. for another 30 min. Absorbance signals for MTT and WST-8 were read at 540 nm and 450 nm respectively, with 690 nm as reference performed with Infinite F PLEX plate reader (TECAN, Morrisville, NC, USA). GI50 values were analyzed using GraphPad Prism 8 from the data of at least three independent experiments.

Another assay concerns HT-29 cells. Kind of assay: WST-8 cell viability assay, HT-29. It counts as cell-based. The conditions noted are these: WST-8 3 d serial dilutions, clonogenic assay 10 d. On the procedure:
as §1, §2

Assay [4] has as its system MEK1/2. The assay is described as follows: Western blot of MEK1/2 protein levels in SK-MEL-28 cells. The conditions noted are these: SK-MEL-28 cells; for MEK1 and MEK2 protein levels, time-dependent: 0.1 μM or 0.3 μM, harvested at indicated time points.
Protocol: as §3, §4
The subject of a further assay is MEK1 and MEK2 proteins. The assay is described as follows: Global proteome analysis of HT-29 cells. In kind it is cell-based, human. Here is the method: […] […] P values were calculated from the data of two technical replicates. (A) DMSO compared to CPD-031 treated samples; (B) CPD-034 compared to CPD-031 treated samples; (C) DMSO compared to CPD-034 treated samples.
Proteins outside the significance lines were labeled with pink or purple color (FDR=0.05, S0=1). P values were calculated from the data of two technical replicates.
Protein Extraction and Digestion. Cells with indicated treatments were harvested and lysed in lysis buffer (6 M guanidine hydrochloride, 100 mM Tris-HCl pH 8.0). Sonication (5 s on, 5 s off, 2×30 s) was performed to shear genome DNA. Lysate were centrifugated for 30 min at 3,500 g at 4° C. and the supernatant were transferred to a clean tube, diluted 50% with Milli-Q H2O, then precipitated by addition of cold acetone (four times the original volume), and placed at −20° C. overnight. Precipitated proteins were brought down at 20,000 g at 4° C. for 10 min, and washed with cold acetone after discarding the supernatant. The pellet was air-dried at RT for 5 min and solubilized with 50 mM Tris-HCl (PH 8.0), 8 M urea. Protein concentration was determined (BCA assay) and protein was reduced with 5 mM DTT (dithiothreitol), alkylated with 15 mM IAA (iodoacetamide) in the dark, then diluted with buffer 25 mM Tris (pH 8.0) and 1 mM CaCl2 (three times the original volume). The final urea concentration is 2 M. Trypsin was added into protein solution with 1:100 ratio (trypsin:protein), and digested 12-16 h or overnight at RT.
Mass Spectrometry Analysis. Peptides were cleaned up by C18 stage tips and the concentration was determined (Peptide assay, 23275, Thermo Fisher Scientific). The clean peptides were dissolved in 0.1% formic acid and analyzed on a Q-Exactive HF-X coupled with an Easy nanoLC 1200 (Thermo Fisher Scientific, San Jose, CA). 0.5 μg of peptides were loaded onto an Acclain PepMap RSLC C18 Column (250 mm×75 μm ID, C18, 2 μm, Thermo Fisher Scientific). […] A linear gradient of 5 to 30% buffer B over 110 min was executed at a 300 nl/min flow rate followed a ramp to 100% B in 5 min, and 15-min wash with 100% B, where buffer A was aqueous 0.1% formic acid, and buffer B was 80% acetonitrile and 0.1% formic acid.
LC-MS experiments were performed in a data-dependent mode with full MS (externally calibrated to a mass accuracy of <5 ppm and a resolution of 60,000 at m/z 200) followed by high energy collision-activated dissociation-MS/MS of the top 20 most intense ions with a resolution of 15,000 at m/z 200. High energy collision-activated dissociation-MS/MS was used to dissociate peptides at a normalized collision energy of 27 eV in the presence of nitrogen bath gas atoms. Dynamic exclusion was 30.0 seconds. Each sample was subjected to two technical LC-MS replicates.
MS Data Analysis. Mass spectra processing and peptide identification were performed on the Andromeda search engine in MaxQuant software (Version 1.6.0.16) against the human UniProt database (UP000005640). All searches were conducted with a defined modification of cysteine carbamidomethylation, with methionine oxidation and protein amino-terminal acetylation as dynamic modifications. Peptides were confidently identified using a target-decoy approach with a peptide false discovery rate (FDR) of 1% and a protein FDR of 1%. A minimum peptide length of 7 amino acids was required, maximally two missed cleavages were allowed, initial mass deviation for precursor ion was up to 7 ppm, and the maximum allowed mass deviation for fragment ions was 0.5 Da. Data processing and statistical analysis were performed on Perseus (Version 1.6.0.7). Protein quantitation was performed on duplicate runs, and a two-sample t-test statistics was used to report statistically significant expression fold-changes.

The subject of another assay is H3122 cells. The assay is described as follows: WST-8 cell viability assay, H3122. In kind it is cell-based. The conditions noted are these: WST-8, 3 d. On the procedure:
as §2

A further assay has as its system SUDHL1 cells. Kind of assay: WST-8 cell viability assay, SUDHL1. The conditions noted are these: WST-8, 3 d. In kind it is cell-based. On the procedure: as §2
A further assay concerns the target T1, MEK2 (Homo sapiens, UniProt P36507).
T1 construct: purchased Thermo Fisher Scientific PV3615
Kind of assay: HotSpot kinase inhibition assay, MEK2. The conditions noted are these: MEK2 150 nM, ERK K52R substrate, 33P-ATP, normalized with DMSO. It counts as biochemical.

The next assay deals with T2, MEK1 (Homo sapiens, UniProt Q02750).
T2 construct: purchased Thermo Fisher Scientific PV3303
Kind of assay: HotSpot kinase inhibition assay, MEK1. It counts as biochemical. The conditions noted are these: MEK1 100 nM, ERK K52R substrate, 33P-ATP, normalized with DMSO.

[5] abbreviates: serial dilution, 24 h, western blot.
The mark [6] stands for this setting: 8 h, 0.1 μM CPD-038 or CPD-052, 0.3 μM CPD-051 or CPD-097, versus 0.1% DMSO.

T2 sequence (Q02750 whole entry): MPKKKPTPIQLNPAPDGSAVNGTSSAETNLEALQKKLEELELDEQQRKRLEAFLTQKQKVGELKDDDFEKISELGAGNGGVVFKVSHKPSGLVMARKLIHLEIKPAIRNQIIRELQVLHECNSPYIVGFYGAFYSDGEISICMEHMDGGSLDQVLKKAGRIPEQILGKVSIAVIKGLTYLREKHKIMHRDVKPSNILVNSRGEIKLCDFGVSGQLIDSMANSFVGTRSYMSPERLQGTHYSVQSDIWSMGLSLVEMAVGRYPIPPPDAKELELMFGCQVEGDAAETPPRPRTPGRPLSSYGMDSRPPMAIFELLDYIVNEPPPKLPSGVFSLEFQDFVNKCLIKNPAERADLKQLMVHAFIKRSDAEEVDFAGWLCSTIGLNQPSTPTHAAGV
T1 sequence (P36507 whole entry): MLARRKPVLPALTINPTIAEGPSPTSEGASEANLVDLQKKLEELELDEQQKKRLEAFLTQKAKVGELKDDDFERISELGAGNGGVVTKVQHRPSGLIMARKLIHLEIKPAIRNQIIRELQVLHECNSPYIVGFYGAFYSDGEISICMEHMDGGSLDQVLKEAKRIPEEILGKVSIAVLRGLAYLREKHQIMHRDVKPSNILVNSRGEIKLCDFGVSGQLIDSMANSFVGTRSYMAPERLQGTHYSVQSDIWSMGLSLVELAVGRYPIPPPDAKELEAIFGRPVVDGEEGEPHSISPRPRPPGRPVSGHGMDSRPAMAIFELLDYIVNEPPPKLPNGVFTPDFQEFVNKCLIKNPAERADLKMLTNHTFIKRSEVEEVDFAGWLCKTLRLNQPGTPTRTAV

Take `O=C1CCC(N2C(=O)c3ccc(NCCOCCOCCOCCOCCOCCNCCCONC(=O)c4ccc(F)c(F)c4Nc4ccc(I)cc4F)cc3C2=O)C(=O)N1` (centres unmarked) [CPD-051, N-((1-((2-(2,6-dioxopiperidin-3-yl)-1,3-dioxoisoindolin-5-yl)amino)-3,6,9,12,15-pentaoxa-18-azahenicosan-21-yl)oxy)-3,4-difluoro-2-((2-fluoro-4-iodophenyl)amino)benzamide]: the “phosphorylation of MEK and ERK / pERK signaling, time-dependent” value with pMEK and pERK [1] is reported as “inhibit”; in the assay on pMEK and pERK [2], “inhibit”. Moreover, the “phosphorylation of MEK and ERK proteins, concentration-dependent” value in the assay on pMEK and pERK [1] (setting [5]) was “inhibited”; with pMEK and pERK [2] (setting [5]) it was “inhibited”. Besides, the “MEK1 and MEK2 protein levels, time-dependent” value in the assay with MEK1/2 [3] (HT-29 cells) and in the assay on MEK1/2 [4] was “degrade” throughout. For the same molecule, the “MEK1 and MEK2 protein levels” value in the assay with MEK1/2 [3] (HT-29 cells, 24 h, 0.3 μM, 1 μM and 3 μM, western blot normalized with α-tubulin) is on record as “significantly degraded”. The “MEK1 and MEK2 protein levels, concentration-dependent” value in the assay on MEK1/2 [3] (HT-29 cells, serial dilution, 24 h, western blot) was “concentration-dependently reduced”; in the assay with MEK1/2 [4] (setting [5]), “concentration-dependently reduced”. Further, the growth of cells result with SK-MEL-28 cells and in the assay with HT-29 cells was “significantly suppressed” in each case. Moreover, in the assay on MEK1 and MEK2 proteins (setting [6]), the “protein levels in the global proteomic study” value was “selectively degraded”.
For the molecule `Cc1ncsc1-c1ccc([C@H](C)NC(=O)[C@@H]2C[C@@H](O)CN2C(=O)[C@@H](NC(=O)CCCCCCCCCCCNCCCCONC(=O)c2ccc(F)c(F)c2Nc2ccc(I)cc2F)C(C)(C)C)cc1` [CPD-038, (2S,4R)-1-((S)-22-(tert-butyl)-1-(3,4-difluoro-2-((2-fluoro-4-iodophenyl)amino)phenyl)-1,20-dioxo-3-oxa-2,8,21-triazatricosan-23-oyl)-4-hydroxy-N—((S)-1-(4-(4-methylthiazol-5-yl)phenyl)ethyl)pyrrolidine-2-carboxamide], the “growth inhibition compared with AZ compound” value with H3122 cells and in the assay on SUDHL1 cells was “more potent” throughout. Further, the “phosphorylation of MEK and ERK / pERK signaling, time-dependent” value in the assay with pMEK and pERK [1] was “inhibit”; in the assay on pMEK and pERK [2] it was “inhibit”. The “MEK1 and MEK2 protein levels, time-dependent” value with MEK1/2 [3] (HT-29 cells) and with MEK1/2 [4] was “degrade” each time. Further, the “protein levels in the global proteomic study” value in the assay on MEK1 and MEK2 proteins (setting [6]) is on record as “selectively degraded”.
Turning to `Cc1ncsc1-c1ccc([C@H](C)NC(=O)C2CC(O)CN2C(=O)[C@@H](NC(=O)CCCCCCCCCCNCCCONC(=O)c2ccc(F)c(F)c2Nc2ccc(I)cc2F)C(C)(C)C)cc1` (stereo in doubt) [CPD-034, (2R,4S)-1-((S)-20-(tert-butyl)-1-(3,4-difluoro-2-((2-fluoro-4-iodophenyl)amino)phenyl)-1,18-dioxo-3-oxa-2,7,19-triazahenicosan-21-oyl)-4-hydroxy-N—((S)-1-(4-(4-methylthiazol-5-yl)phenyl)ethyl)pyrrolidine-2-carboxamide], the MEK2 kinase activity result on MEK2 is reported as “inhibited”. Besides, the MEK1 kinase activity result on MEK1 is on record as “inhibited”. In addition, in the assay on MEK1/2 [3] (HT-29 cells, 0.1, 0.3, or 1 μM, 24 h), the “MEK1 and MEK2 protein levels” value was “not”. For the same molecule, the “protein levels in the global proteomic study” value in the assay with MEK1 and MEK2 proteins (10 h, 0.1 μM, versus 0.1% DMSO) is given as “did not significantly modulate”.
With `Cc1ncsc1-c1ccc([C@H](C)NC(=O)[C@H]2C[C@H](O)CN2C(=O)[C@@H](NC(=O)CCCCCCCCCCCNCCCCONC(=O)c2ccc(F)c(F)c2Nc2ccc(I)cc2F)C(C)(C)C)cc1` [CPD-052, (2R,4S)-1-((S)-22-(tert-butyl)-1-(3,4-difluoro-2-((2-fluoro-4-iodophenyl)amino)phenyl)-1,20-dioxo-3-oxa-2,8,21-triazatricosan-23-oyl)-4-hydroxy-N-((S)-1-(4-(4-methylthiazol-5-yl)phenyl)ethyl)pyrrolidine-2-carboxamide], the growth of cells entry with SK-MEL-28 cells and in the assay on HT-29 cells was “did not significantly suppress” each time. In the assay with MEK1 and MEK2 proteins (setting [6]), the “protein levels in the global proteomic study” value is recorded as “did not significantly modulate”.
In the case of `CN1C(=O)CCC(N2C(=O)c3ccc(NCCOCCOCCOCCOCCOCCNCCCONC(=O)c4ccc(F)c(F)c4Nc4ccc(I)cc4F)cc3C2=O)C1=O` (centres unmarked) [CPD-097, 3,4-difluoro-2-((2-fluoro-4-iodophenyl)amino)-N-((1-((2-(1-methyl-2,6-dioxopiperidin-3-yl)-1,3-dioxoisoindolin-5-yl)amino)-3,6,9,12,15-pentaoxa-18-azahenicosan-21-yl)oxy)benzamide], the growth of cells entry with SK-MEL-28 cells and in the assay on HT-29 cells was “did not significantly suppress” in each case. Besides, the “protein levels in the global proteomic study” value with MEK1 and MEK2 proteins (setting [6]) is “did not significantly modulate”.
